Data: patent publication US7993627B2, “Methods for determining whether a compound alters the amount of at least one αβ (X-41) peptide and the amount of either total αβ or at least one αβ (X-40) peptide produced by a non-human mammal” (Elan Pharmaceuticals, Inc., priority 1996, dated 2011)
Where a SMILES comes first, the peptide text is derived from it. The star is where a group is joined. Cbz = O=C(OCc1ccccc1)*

Tests used:
[1] = tested on: K695sw cells; assay: Pulse-chase labeling and immunoprecipitation of chase media and cell lysates (APP processing); format: cell-based, human
Description: We first set out to reproduce the published results of Higaki et al. (1995) Neuron, 14:651-659 on the action of the compound MDL 28170 on APP processing, using human kidney 293 cells stably expressing APP695 with the Swedish FAD mutation (K695sw cells). Our experiments were done using a pulse-chase paradigm: K695sw cells were labeled for 2 hours with 35S-methionine and then chased for 2 hours in the presence of 200 μM MDL 28170. Aliquots of the chase media from treated and untreated cells were subjected to SDS-PAGE.
To address this question, we performed pulse-chase experiments on K695sw cells using different doses of MDL 28170, followed by sequential immunoprecipitation of the same media first with 21F12, a monoclonal antibody raised against amino acids 33-42 of Aβ (described above) which specifically precipitates Aβ peptides ending at position 42, and then with antibody 1282 which precipitates all forms of Aβ and p3 (Haass et al., (1992b) Nature 359:322-325) (FIG. 4A). […] Using MDL 28170 at 200 μM, the experiment was repeated four times and the results were quantitated by phosphorimaging (FIG. 4B).
All transfected cell lines described here carry derivatives of pCMV695, a plasmid carrying APP695 under control of the CMV promoter (Selkoe, (1988) Proc. Natl. Acad. Sci. 85:7341-7345) K695sw are human embryonic kidney 293 cells stably transfected with a construct carrying the AD-linked double (“Swedish”) mutation K595N/M596L (Citron et al. (1992) Nature, 360:672-674); K695717I are 293 cells stably transfected with APP695 carrying the mutation V717I (valine to isoleucine at position 717 in the APP770 numbering system). CHO695 are Chinese hamster ovary cells (CHO) stably transfected with pCMV695 (Oltersdorf (1990) J. Biol. Chem. 265:4432-4437) SKN695 are SK-N-SH human neuroblastoma cells stably transfected with pCMV695.
To analyze the effect of MDL 28170 on the processing of APP, cells were grown to confluence in two 10 cm dishes, pulse-labeled with 600 μCi of [^35S]-methionine in 4 ml of serum-free medium for 2 hours and then chased for 2 hours with 4 ml medium containing 10% fetal bovine serum and the indicated final concentration of MDL 28170 (initially dissolved at 200 mM. in DMSO). Control dishes were treated with DMSO alone.
Conditioned media and cell lysates were analyzed by immunoprecipitation, as described (Haass, et al. (1992) Nature 359:322-325). Polyclonal antibody R1736 to residues 595-611 of APP695 was used to precipitate α-APPs (Haass, (1994) J. Biol. Chem. 269:17741-17748). This antibody recognizes an epitope that is specific for the free COOH-terminus of α-cleaved APPs. Polyclonal antibody R1282 was generated to synthetic Aβ1-40 (Haass, et al. (1992) Nature 359:322-325). […]

[2] = tested on: total Aβ and total p3; conditions: literature; cited from earlier work

SMILES | β-secretase activity (β-cleaved APPs, antibody 192sw immunoprecipitation) ([1]; 200 μM during 2 h chase) | Aβ(42) (antibody 21F12) ([1]; 1 μM PDBu, 2 h pulse 2 h chase) | p3(42) (antibody 21F12) ([1]; 1 μM PDBu, 2 h pulse 2 h chase) | total Aβ (subsequent R1282) ([1]; 1 μM PDBu, 2 h pulse 2 h chase) | total Aβ [2] | total p3 [2]
CC(C)[C@H](NC(=O)OCc1ccccc1)C(=O)N[C@H](C=O)Cc1ccccc1 [MDL 28170] (Cbz-Val-Phe-aldehyde) | does not significantly inhibit | – | – | – | – | –
CCCC(=O)O[C@@H]1[C@@H](C)[C@@]2(O)[C@@H](C=C(CO)C[C@]3(O)C(=O)C(C)=C[C@@H]23)[C@@H]2C(C)(C)[C@]12OC(=O)CCC [PDBu] | – | decreases | increase | decreases | decrease | increase
